In assay [1] the test system is naive CD4 T cells isolated from human PBMCs. As to the kind of experiment: T regulatory (Treg) cell polarization of naive CD4 T cells, flow cytometry for CD25 and Foxp3. It is filed as cell-based. Conditions: for Treg polarization: naive CD4 T cells from healthy donor PBMCs, six days, Foxp3 and CD25 by flow cytometry (Example 3, FIGS. 3, 4A-4B). The method, then:
(§1) To evaluate the effects of Compounds on T regulatory (Treg) and Th17 cell polarization, naive CD4 T cells were isolated from human peripheral blood mononuclear cells (PBMCs) using magnetic bead separation and cultured with or without compound in the presence of Treg or Th17 polarizing cytokines. For Treg polarization, naive cells were cultured for five days with anti-CD3, anti-CD28, TL-2 and TGFβ. After five days, the cells were then evaluated for CD25 and Foxp3 expression by flow cytometry. For Th17 polarization, naive cells were cultured for 10-11 days with anti-CD3, anti-CD28, […], IL-6, IL-23, TGFβ, anti-IFNγ antibody and anti-IL-4 antibody. After 10-11 days cells were stimulated and then evaluated for IL-17 and IFNγ by flow cytometry.
To evaluate the effects of Compound 571 on Treg cell polarization, naive cells were isolated from human peripheral blood mononuclear cells (PBMCs), stimulated with coated CD3 antibody and soluble CD28 antibody, and cultured with or without compound in the presence of Treg polarizing cytokines for five days, as described in [0601]. Compound was replenished at either day three or day four.
(§2) Naive CD4 T cells were isolated from healthy donor PBMCs using magnetic bead separation and were incubated for six days with cytokine cocktail to promote polarization to T regulatory cells, as described in [0601]. Cells were simultaneously treated with various concentrations of G9a inhibitors, with compound replenishment occurring at either day three or day four. Polarization to T regulatory cells was assessed by flow cytometry using Foxp3 and CD25. Methyl mark (H3K9me2) was also assessed by flow cytometry.
Background: In flow cytometry, cells or beads pass a laser one at a time.

Assay [2] has the same test system. Briefly: Th17 cell polarization of naive CD4 T cells, flow cytometry for IL-17 and IFNγ. The assay is classed as cell-based. The settings on record: for percentage of polarized Th17 cells: naive cells from human PBMCs, Th17 polarizing cytokines, 11 days, IL-17 and IFNγ by flow cytometry (Example 2, FIGS. 1B, 2). The method, then:
as §1
To evaluate the effects of Compounds 205 and 571 on Th17 cell polarization, naive cells were isolated from human peripheral blood mononuclear cells (PBMCs), stimulated with coated CD3 antibody and soluble CD28 antibody, and cultured with or without compound in the presence of Th17 polarizing cytokines for 11 days as described in [0601]. Compound was replenished at either day three or day four. After 11 days of treatment, cells were stimulated with PMA, ionomycin, brefeldin A and monensin, and then evaluated for IL-17 and IFNγ by flow cytometry.
(§3) Naive CD4 T cells were isolated from healthy donor PBMCs using magnetic bead separation and were incubated with cytokine cocktail to promote polarization to Th17 cells, as described in [0601]. Cells were simultaneously treated with various concentrations of G9a inhibitors, with compound replenishment occurring at day three or four. Polarization to Th17 cells was assessed by flow cytometry using IL-17A and IFNy. Methyl mark (H3K9me2) was also assessed by flow cytometry.

In assay [3] the test system is H3K9me2. Briefly: Methyl mark (H3K9me2) by flow cytometry under Treg polarizing conditions. The assay is classed as cell-based, human. Conditions: naive CD4 T cells from healthy donor PBMCs, six days, flow cytometry (Example 3, FIGS. 3, 4A-4B). The procedure: as §2
The test system of assay [4] is H3K9me2. As to the kind of experiment: Methyl mark (H3K9me2) by flow cytometry under Th17 polarizing conditions. The assay is classed as cell-based, human. The settings on record: naive CD4 T cells from healthy donor PBMCs, flow cytometry (Example 4, FIGS. 5, 6A-6B). The method, then:
as §3

The structures appear in SMILES notation. “Also recorded” adds a separate entry of the source.

In the case of `CNc1cc(C)nc(Nc2ccc(OC)c(OCCCN3CCCC3)c2)n1` [Compound 205], in assay [1], the Treg polarization result was “increased”. Besides, the “percentage of polarized Th17 cells” value in assay [2] is “dose-dependent increase”. Further, the “H3K9me2 (methyl mark) under Treg polarization” value in the assay on H3K9me2 [3] is given as “decreased”. Also, in the assay on H3K9me2 [4], the “H3K9me2 (methyl mark) under Th17 polarization” value was “decreased”.
As to `CCN1CC[C@@H](COc2cc(Nc3nc(C)cc(NC)n3)ccc2OC)C1` [Compound 571], the “polarized Treg cells” value in assay [1] (naive cells from human PBMCs, Treg polarizing cytokines, five days (Example 2, FIG. 1A)) was “anin polarized Treg cells”. For the same compound, in assay [2], the “percentage of polarized Th17 cells” value was “dose-dependent increase”.
Regarding `CNC1=Nc2cc(C#CCN3CCCCC3)c(OC)cc2C12CCC2` [Compound A75], in assay [1], the Treg polarization result is on record as “increased”. Also, the “H3K9me2 (methyl mark) under Treg polarization” value in the assay with H3K9me2 [3] is reported as “decreased”. Besides, the “H3K9me2 (methyl mark) under Th17 polarization” value in the assay on H3K9me2 [4] is “decreased”.
For the compound `CNCc1cnn(-c2cc(Nc3nc(C)cc(NC)n3)ccc2OC)c1` [Compound D6], in assay [1], the Treg polarization entry is “dose-dependent increase; also recorded: increased”. Further, the Th17 polarization entry in assay [2] (naive CD4 T cells from healthy donor PBMCs, IL-17A and IFNγ by flow cytometry (Example 4, FIG. 5)) is given as “dose-dependent increase”. In the assay on H3K9me2 [3], the “H3K9me2 (methyl mark) under Treg polarization” value was “dose-dependent decrease; also recorded: decreased”. Moreover, the “H3K9me2 (methyl mark) under Th17 polarization” value in the assay with H3K9me2 [4] was “dose-dependent decrease; also recorded: decreased”.

The record behind these values is patent US20240173320A1, “METHODS OF USING EHMT2 INHIBITORS IN IMMUNOTHERAPIES” (Epizyme, Inc., priority 2017, published 2024).
